Measured values: patent publication US10729135B2, “Methods of controlling pests using terpendoles” (priority 2017, dated 2020)
Read-outs that look alike come from different tables or passages of the source.

Key:
Assay in all cases: whole plant or invertebrate
Assay type in all cases: in vivo
[1] = system: foxglove aphid (Aulacorthum solani)
Procedure: (§1) A bioefficacy assay utilizing terpendole C was conducted on the lepidopterans: diamondback moth (Plutella xylostella) and common cutworm (Spodoptera litura): the whitefly, tobacco whitefly (Bemisia tabaci) the thrips, western flower thrips (Frankliniella occidentalis); the planthopper, brown rice planthopper (Nilaparvata lugens); the aphids, cotton aphid (Aphis gossypii), foxglove aphid (Aulacorthum solani), cabbage aphid (Brevicoryne brassicae), birdcherry-oat aphid (Rhopalosiphum padi), green peach aphid (Myzus persicae); and the mite, two-spotted spider mite (Tetranychus urticae). Specifically, terpendole C was diluted with acetone and 5% Tween® 20 and finally diluted with water to prepare spray solutions. Terpendole C was then applied to plants as a foliar spray at 500, 200, 50, 12.5, 3.1, 1, 0.8 and/or 0.2 ppm and/or as a soil treatment at 2,500, 1,000, 250, 63, 16, 4 and/or 1 ppm. Pests were then placed on the plant or in the soil. Further, mortality and appetite suppression were recorded at 6, 7 and/or 13 days after treatment (“DAT”) and are reported in Tables 2 and 3, below, respectively.

[2] = system: green peach aphid (Myzus persicae)
Procedure: as §1

[3] = system: tobacco whitefly (Bemisia tabaci)
Procedure: as §1

[4] = system: two-spotted spider mite (Tetranychus urticae); conditions: Kidney Bean, All stages; for mortality at 12.5 ppm / mortality at 50 ppm / mortality at 200 ppm / mortality at 500 ppm: Tetranychus urticae, read-out: Mortality score; on Appetite suppression score: key: 0 = no to little suppression; 1 = about 10% suppression; 2 = about 25% suppression; 3 = about 60% suppression; 4 = 70-100% suppression
Procedure: as §1

[5] = system: western flower thrips (Frankliniella occidentalis)
Procedure: as §1

With `CC(C)=C[C@H]1O[C@H]2[C@H]3O[C@@]34[C@H](CC[C@@]3(C)[C@@]4(O)CC[C@H]4Cc5c([nH]c6ccccc56)[C@@]43C)O[C@@H]2C(C)(C)O1` [Terpendole C, terpendole C] the Appetite suppression score ([1]; 200 ppm, Kidney Bean, Adult, 6 DAT) was 0, the Appetite suppression score ([1]; 500 ppm, Kidney Bean, Adult, 6 DAT) was 2 (2 = about 25% suppression) and the mortality at 12.5 ppm ([1]; Aulacorthum solani, 144 h, 12.5 ppm, Kidney Bean, Adult, 6 DAT, read-out: Mortality score) was < 29%. The mortality at 50 ppm ([1]; Aulacorthum solani, 144 h, 50 ppm, Kidney Bean, Adult, 6 DAT, read-out: Mortality score) was < 29%, the mortality at 200 ppm ([1]; Aulacorthum solani, 144 h, 200 ppm, Kidney Bean, Adult, 6 DAT, read-out: Mortality score (converted)) was 50% and the mortality at 500 ppm ([1]; Aulacorthum solani, 144 h, 500 ppm, Kidney Bean, Adult, 6 DAT, read-out: Mortality score (converted)) was 75%. For the same compound, the “control of foxglove aphids (in words)” value ([1]; summary of Table 2) was “effectively controlled”, the mortality at 0.8 ppm ([2]; Myzus persicae, 144 h, 0.8 ppm, Cabbage, All stages, 6 DAT, read-out: Mortality score) was < 29% and the mortality at 3.1 ppm ([2]; Myzus persicae, 144 h, 3.1 ppm, Cabbage, All stages, 6 DAT, read-out: Mortality score (converted)) was 50%. For the same compound, the mortality at 12.5 ppm ([2]; Myzus persicae, 144 h, 12.5 ppm, Cabbage, All stages, 6 DAT, read-out: Mortality score (converted)) was 75%, the mortality at 50 ppm ([2]; Myzus persicae, 144 h, 50 ppm, Cabbage, All stages, 6 DAT, read-out: Mortality score (converted)) was 90% and the mortality at 200 ppm ([2]; Myzus persicae, 144 h, 200 ppm, Cabbage, All stages, 6 DAT, read-out: Mortality score (converted)) was 100%. The “control of green peach aphids (in words)” value ([2]; summary of Table 2) was “effectively controlled”, the Mortality score ([3]; 12.5 ppm, Cabbage, 1st instar, 7 DAT) was 0-2 and the mortality at 0.8 ppm ([3]; Bemisia tabaci, 168 h, 0.8 ppm, Cabbage, 1st instar, 7 DAT, read-out: Mortality score) was < 29%. The mortality at 1 ppm ([3]; Bemisia tabaci, 168 h, 1 ppm, Cabbage, 1st instar, 7 DAT, read-out: Mortality score (converted)) was 50%, the mortality at 3.1 ppm ([3]; Bemisia tabaci, 168 h, 3.1 ppm, Cabbage, 1st instar, 7 DAT, read-out: Mortality score (converted)) was 50% and the mortality at 50 ppm ([3]; Bemisia tabaci, 168 h, 50 ppm, Cabbage, 1st instar, 7 DAT, read-out: Mortality score) was < 29%. The mortality at 200 ppm ([3]; Bemisia tabaci, 168 h, 200 ppm, Cabbage, 1st instar, 7 DAT, read-out: Mortality score) was < 29%, the mortality at 500 ppm ([3]; Bemisia tabaci, 168 h, 500 ppm, Cabbage, 1st instar, 7 DAT, read-out: Mortality score) was < 29% and the “control of the whitefly (in words)” value ([3]; summary of results) was “significantly controlled”. For the same compound, the Appetite suppression score ([4]; 12.5 ppm, 7 DAT) was 0, the Appetite suppression score ([4]; 12.5 ppm, 13 DAT) was 0 and the Appetite suppression score ([4]; 50 ppm, 7 DAT) was 0. It also gave an Appetite suppression score ([4]; 50 ppm, 13 DAT) of 0, an Appetite suppression score ([4]; 200 ppm, 7 DAT) of 0 and an Appetite suppression score ([4]; 200 ppm, 13 DAT) of 0. For the same compound, the Appetite suppression score ([4]; 500 ppm, 7 DAT) was 0, the Appetite suppression score ([4]; 500 ppm, 13 DAT) was 0 and the mortality at 12.5 ppm ([4]; 168 h, 12.5 ppm, 7 DAT) was < 29%. For the same compound, the mortality at 50 ppm ([4]; 168 h, 50 ppm, 7 DAT) was < 29%, the mortality at 200 ppm ([4]; 168 h, 200 ppm, 7 DAT) was < 29% and the mortality at 500 ppm ([4]; 168 h, 500 ppm, 7 DAT) was < 29%. For the same compound, the mortality at 12.5 ppm ([4]; 312 h, 12.5 ppm, 13 DAT) was < 29%, the mortality at 50 ppm ([4]; 312 h, 50 ppm, 13 DAT) was < 29% and the mortality at 200 ppm ([4]; 312 h, 200 ppm, 13 DAT) was < 29%. For the same compound, the mortality at 500 ppm ([4]; 312 h, 500 ppm, 13 DAT) was < 29%, the Appetite suppression score ([5]; 12.5 ppm, Kidney Bean, 1st-2nd instar, 6 DAT) was 3-4 and the Appetite suppression score ([5]; 50 ppm, Kidney Bean, 1st-2nd instar, 6 DAT) was 3-4. For the same compound, the Appetite suppression score ([5]; 200 ppm, Kidney Bean, 1st-2nd instar, 6 DAT) was 3-4, the Appetite suppression score ([5]; 500 ppm, Kidney Bean, 1st-2nd instar, 6 DAT) was 3-4 and the mortality at 0.2 ppm ([5]; Frankliniella occidentalis, 144 h, 0.2 ppm, Kidney Bean, 1st-2nd instar, 6 DAT, read-out: Mortality score) was < 29%. The mortality at 0.8 ppm ([5]; Frankliniella occidentalis, 144 h, 0.8 ppm, Kidney Bean, 1st-2nd instar, 6 DAT, read-out: Mortality score) was < 29%, the mortality at 3.1 ppm ([5]; Frankliniella occidentalis, 144 h, 3.1 ppm, Kidney Bean, 1st-2nd instar, 6 DAT, read-out: Mortality score) was < 29% and the mortality at 12.5 ppm ([5]; Frankliniella occidentalis, 144 h, 12.5 ppm, Kidney Bean, 1st-2nd instar, 6 DAT, read-out: Mortality score) was < 29%. For the same compound, the mortality at 50 ppm ([5]; Frankliniella occidentalis, 144 h, 50 ppm, Kidney Bean, 1st-2nd instar, 6 DAT, read-out: Mortality score) was < 29%, the mortality at 200 ppm ([5]; Frankliniella occidentalis, 144 h, 200 ppm, Kidney Bean, 1st-2nd instar, 6 DAT, read-out: Mortality score) was < 29% and the mortality at 500 ppm ([5]; Frankliniella occidentalis, 144 h, 500 ppm, Kidney Bean, 1st-2nd instar, 6 DAT, read-out: Mortality score) was < 29%. The “control of the thrips (in words)” value ([5]; summary of results) was “significantly controlled”.
